“Also recorded” adds a separate entry of the source.
Legend:
[1] = High fat diet prevention group: body weight and food intake; assay type: in vivo, C57BL/6 mice
Procedure: (§1) Wild type male C57BL/6 mice were fed a high fat diet consisting of 45% of calories from fat (D12451 Research Diets Inc., New Brunswick, N.J.) starting at 8 weeks of age for 12-24 weeks, while normal diet C57BL/6 controls were maintained on normal chow diet consisting of 4.5% fat (5002 Lab Diet, Philadelphia, Pa.). Diets containing ω-3 fatty acids were fed as previously described 24. Rosiglitazone treatment was administered for three weeks by addition of the compound to the diet in mice that had been on HFD for 16 weeks. Each mouse consumed on average 3.5 mg/kg rosiglitazone per day. Amlexanox was administered by daily oral gavage. […] Animals were housed in a specific pathogen-free facility with a 12-hour light/12-hour dark cycle and given free access to food and water. All animal use was in compliance with the Institute of Laboratory Animal Research Guide for the Care and Use of Laboratory Animals and approved by the University Committee on Use and Care of Animals at the University of Michigan and UCSD.
The remaining weight of food provided was determined daily for singly housed mice. Daily food consumption was calculated from a three-day average.

[2] = Ob/ob mice: blood chemistry (glucose, adiponectin, serum cytokines); assay type: in vivo
Procedure: as §1
(§2) Blood glucose was measured by OneTouch Ultra Glucometer. Plasma from mice fasted for six hours was isolated from whole blood collected into heparinized tubes. Insulin concentrations were measured by insulin ELISA kit (Crystal Chem Inc., Downers Grove, Ill.). Leptin and adiponectin levels were measured by ELISA kits purchased from Cayman Chem Inc. (Ann Arbor, Mich.). Cytokine levels were quantified utilizing luminex technology in a multianalyte panel plate purchased from Millipore (Billerica, Mass.). Additionally, TNFα levels were measured using ELISA kits purchased from R&D Systems (Minneapolis, Minn.).

[3] = Diet-induced obese mice: energy expenditure (metabolic cages) and core body temperature; assay type: in vivo, C57BL/6 mice; settings: 25 mg/kg
Procedure: The University of Michigan Animal Metabolic Phenotyping Core measured oxygen consumption (VO2), carbon dioxide production (VCO2) and spontaneous motor activity during 3 consecutive days using the Comprehensive Laboratory Monitoring System (CLAMS, Columbus Instruments), an integrated open-circuit calorimeter equipped with an optical beam activity monitoring system. The respiratory quotient was calculated by dividing carbon dioxide production by oxygen consumption. The mean values for light and dark cycles were used to analyze statistical significance.
Rectal temperature measurements were performed using a YSI 4600 Precision thermometer (YSI, Inc., Yellow Springs, Ohio).

[4] = Diet-induced obesity treatment group: insulin tolerance test; assay type: in vivo, C57BL/6 mice
Procedure: as §1
(§3) For glucose tolerance tests, after a six-hour fast mice were orally gavaged with glucose at a dose of 1.5 g/kg (C57BL/6 mice) or 1.2 g/kg (ob/ob mice). […] Blood glucose was measured at basal, 15, 30, 45, 60, 90, 120 and 180 minutes from tail blood using the One Touch Ultra glucometer (Lifescan, Milpitas, Calif.).

3T3-L1 adipocytes = assay: 3T3-L1 adipocytes: phosphorylation (immunoblot) and lipolysis; assay type: cell-based
Procedure: 3T3-L1 fibroblasts (American Type Culture Collection, Manassas, Va.) were cultured and differentiated using standard methods known in the art. […] 3T3-L1 adipocytes were serum starved with 0.5% fetal bovine serum (FBS) in Dulbecco's modified eagle medium (DMEM) prior to treatment. TNFα treatments (50 ng/mL unless otherwise noted) were performed during the 24 hour prior to harvest, after pretreatment with IKKβ inhibitor compound VIII (EMD Biosciences, Philadelphia, Pa.) for 1 hour where indicated. […] Cells were treated with or without 10 nM of insulin for 15 minutes. RAW264.7 cells were serum starved with 0.5% FBS DMEM media and pre-treated with or without Cay-10576 (Cayman Chemical, Ann Arbor, Mich.). The cells were then treated with LPS (0.5 μg/ml) or poly I:C (50 μg/ml) for 1 hour. Cells were harvested for total RNA and analyzed by real-time PCR Cell lysates were resolved on SDS-PAGE and analyzed by immunoblot using the indicated antibodies.

[5] = Ob/ob mice: insulin tolerance test; assay type: in vivo; settings: 100 mg/kg, 8-week period
Procedure: (§4) Particular physiological tests were used during the development of the technology provided herein. For example, in some of the experiments described below, subjects were tested for tolerance of injected glucose and insulin according to the methods described in Chiang et al. (“The protein kinase IKKepsilon regulates energy balance in obese mice”, Cell (2009) 138: 961-975, incorporated herein by reference in its entirety for all purposes). In some of the experiments described below, subjects were tested for tolerance of oral glucose. In particular, mice were fasted for 6 hours before the studies. For ob/ob mice, 1.0-1.5 mg/g of glucose was gavaged into mice, and blood glucose was measured with a glucometer (e.g., OneTouch Ultra glucometer). Measurement of triglycerides, mRNA, and cytokines were performed according to the methods described in Chiang et al. (The protein kinase IKKepsilon regulates energy balance in obese mice. Cell (2009) 138: 961-975).
as §3

[6] = Ob/ob mice: liver weight, triglycerides, histology; assay type: in vivo; settings: 100 mg/kg for 14 weeks
[7] = test system: broad panel of kinases representing most families; assay: Broad panel of kinases; assay type: biochemical
BAT explants = assay: Lipid oxidation rate in ex vivo BAT; design: species or system mice; settings: 5 μM amlexanox, 1 hour
Procedure: Lipid oxidation was determined by the conversion of 3H-palmitic acid to 3H2O.

[8] = Diet-induced obesity treatment group: blood chemistry; assay type: in vivo, C57BL/6 mice
Procedure: as §1, §2

[9] = Ob/ob mice: body weight, food intake, adipose mass; assay type: in vivo; settings: 100 mg/kg
[10] = Ob/ob mice: glucose tolerance tests; assay type: in vivo; settings: 100 mg/kg
Procedure: as §4, §3

[11] = cells chronically treated with TNFα

CC(C)c1ccc2oc3nc(N)c(C(=O)O)cc3c(=O)c2c1 [amlexanox, 2-amino-7-isopropyl-5-oxo-5H-chromeno[2,3-b]pyridine-3-carboxylic acid]
body weight compared with control diet mice ([1]; 45% fat diet, 25 or 100 mg/kg, throughout 12 weeks): maintained weights equivalent to those of control diet mice | weight gain produced by high-fat diet ([1]; 45% fat diet, daily gavage, either dose 25 or 100 mg/kg): prevented the weight gain | weight gain after switching to 60% fat diet ([1]; both doses 25 and 100 mg/kg, after 12 weeks on 45% fat diet): prevented substantial weight gain | circulating (serum) level of MCP-1 ([2]; 100 mg/kg): not significantly affected | circulating (serum) level of Rantes ([2]; 100 mg/kg): not significantly affected | circulating adiponectin levels ([2]; 100 mg/kg): increase | reduction in fasting glucose levels ([2]; 100 mg/kg): 25% | serum level of IL-1α ([2]; 100 mg/kg): markedly reduced | serum level of MIP1α ([2]; 100 mg/kg): markedly reduced | serum level of TNFα ([2]; 100 mg/kg): markedly reduced | serum level of IL-10 ([2]; compared to controls): elevated | body temperature (rectal) ([3]; compared to HFD vehicle treated mice): approximate one-degree increase | exhaled carbon dioxide ([3]; diet induced obese mice, four-week treatment): significantly increased | oxygen consumption (VO2) ([3]; diet induced obese mice, four-week treatment, vs vehicle): significantly increased; also recorded: significantly higher | insulin sensitivity (insulin tolerance test) ([4]; 25 mg/kg, established diet-induced obesity): restoration in insulin responsiveness to normal diet levels | insulin sensitivity in normal diet-fed mice ([4]; normal diet): did not affect | basal lipolytic rate (glycerol release) (3T3-L1 adipocytes): increased | poly I:C-stimulated phosphorylation of IRF3 (serine 396) (3T3-L1 adipocytes; 1 hour pre-treatment, 20 μg/ml poly I:C): blocked; also recorded: inhibition | down regulation of PPARγ produced by TNFα (3T3-L1 adipocytes; [11]): did not affect | forskolin stimulated hormone sensitive lipase phosphorylation (serine 660) (3T3-L1 adipocytes; [11]): restored; also recorded: partially restores | phosphorylation of TBK1 at serine 172 in TNFα-treated cells (3T3-L1 adipocytes; [11]): restored | phosphorylation of TBK1 on serine 172 (3T3-L1 adipocytes; two-fold serial dilution, highest concentration 50 μM, with and without poly I:C): increased phosphorylation; also recorded: induction | insulin sensitivity (responsiveness to injected insulin) [5]: dramatically improved | large lipid droplets in liver (H & E staining) [6]: largely disseminated | reduction in liver weight [6]: greater than 20% | reduction of triglyceride contents in livers [6]: more than 50% | block of other kinases of a broad panel [7]: did not block | lipid oxidation (3H-palmitic acid to 3H2O) (BAT explants): acutely stimulated | fasting serum insulin ([8]; 25 mg/kg for 8 weeks after established diet-induced obesity): reversed elevations | decrease in fasting levels of leptin ([8]; 25 mg/kg, HFD, treatment phase): 80% | serum cholesterol ([8]; 25 mg/kg, HFD, treatment phase): unchanged | serum free fatty acids ([8]; 25 mg/kg, HFD, treatment phase): unchanged | serum triglycerides ([8]; 25 mg/kg, HFD, treatment phase): unchanged | adipose tissue mass [9]: significant decrease | weight loss ([9]; after 4 weeks of treatment): 7 to 8 g | tolerance to injected glucose ([10]; 5-week period): faster clearance of blood glucose | reduction in the area under the curve (oral glucose tolerance) ([10]; 8-week period, relative to control mice): 30-40%

Source: US10245255B2, “Compositions and methods for the treatment of obesity and related disorders” (THE REGENTS OF THE UNIVERSITY OF MICHIGAN, priority 2011, dated 2019)
